Assay results published in patent US12617790B2, “Mitragynine analogs and uses thereof” (Memorial Sloan-Kettering Cancer Center, priority 2015, dated 2026).
Where two headings read alike, the source gives them in different places.

What was measured:
KOR-1 [1] = biological target: T1, KOR-1 (Mus musculus, UniProt P33534); experiment: Competition binding against 125I-IBNtxA in KOR-1/CHO membranes; conditions: 125I-IBNtxA (0.1 nM), CHO membranes, cloned mouse receptor; read-out: Affinity (Ki nM) KOR-1
T1 construct: expressed in transfected cells; host or cells: CHO

DOR-1 [2] = biological target: T2, DOR-1 (Mus musculus, UniProt P32300); experiment: Competition binding against 125I-IBNtxA in DOR-1/CHO membranes
T2 construct: expressed in transfected cells; host or cells: CHO

MOR-1 [3] = biological target: T3, MOR-1 (Mus musculus, UniProt P42866); experiment: Competition binding against 125I-IBNtxA in MOR-1/CHO membranes
T3 construct: expressed in transfected cells; host or cells: CHO

MOR-1 [4] = biological target: T3, MOR-1; experiment: [35S]GTPγS functional assay, MOR-1 transfected cell membranes; assay type: biochemical; design: Emax: dose or concentration left out as unconfirmed; conditions: for EC50: agonist stimulation of [35S]GTPγS binding, read-out: MOR-1 EC50; for Emax: read-out: MOR-1 Emax (%)
KOR-1 [5] = biological target: T1, KOR-1; experiment: [35S]GTPγS functional assay, KOR-1 transfected cell membranes; assay type: biochemical
DOR-1 [6] = biological target: T2, DOR-1; experiment: [35S]GTPγS functional assay, DOR-1 transfected cell membranes; assay type: biochemical; conditions: for IC50: antagonism of 100 nM DPDPE, read-out: DOR-1 IC50
CD1 mice = experiment: Radiant heat tail flick analgesia, sc, CD1 mice; assay type: in vivo; conditions: Mus musculus, 0.25 h, ED50, cumulative dose-response, tail flick 15 min after sc dose
[7] = 125I-IBNtxA (0.1 nM), CHO membranes, cloned mouse receptor, read-out: Affinity (Ki nM) DOR-1
[8] = agonist stimulation of [35S]GTPγS binding

Compound	Ki (KOR-1 [1])	Ki (DOR-1 [2]; [7])	Ki (MOR-1 [3])	other results
CC[C@@H]1CN2CC[C@@]3(OC)C(=Nc4cccc(OC)c43)[C@@H]2C[C@@H]1/C(=C\OC)C(=O)OC [VM1537, Methyl (E)-2-((2S,3S,7aS,12bS)-3-ethyl-7a,8-dimethoxy-1,2,3,4,6,7,7a,12b-octahydroindolo[2,3-a]quinolizin-2-yl)-3-methoxyacrylate]	90 nM	997 nM	190 nM	
CC[C@@H]1CN2CCC3c4c(cccc4OC)NC3[C@@H]2C[C@@H]1/C(=C\OC)C(=O)OC (stereo partly drawn) [VM1542, Methyl (E)-2-((2S,3S,12bS)-3-ethyl-8-methoxy-1,2,3,4,6,7,7a,12,12a,12b-decahydroindolo[2,3-a]quinolizin-2-yl)-3-methoxyacrylate]	329 nM	374 nM	116 nM	
CC[C@@H]1CN2CC[C@@]3(O)C(=Nc4ccc(-c5ccoc5)c(OC)c43)C2C[C@@H]1/C(=C\OC)C(=O)OC (stereo partly drawn) [VM1523, Methyl (E)-2-((2S,3S,7aS)-3-ethyl-9-(furan-3-yl)-7a-hydroxy-8-methoxy-1,2,3,4,6,7,7a,12b-octahydroindolo[2,3-a]quinolizin-2-yl)-3-methoxyacrylate]	36 nM	109 nM	36 nM	
CC[C@@H]1CN2CCc3c([nH]c4cccc(OC)c34)[C@@H]2C[C@@H]1/C(=C\OC)CO [VM1534, (E)-2-((2S,3S,12bS)-3-ethyl-8-methoxy-1,2,3,4,6,7,12,12b-octahydroindolo[2,3-a]quinolizin-2-yl)-3-methoxyprop-2-en-1-ol]			> 1000 nM	
CC[C@@H]1CN2CCc3c([nH]c4cccc(-c5ccoc5)c34)[C@@H]2C[C@@H]1/C(=C\OC)C(=O)OC [VM1539]	14 nM	332 nM		Ki (MOR-1 [3]; read-out: Affinity (Ki nM) MOR-1, 125I-IBNtxA (0.1 nM), CHO membranes, cloned mouse receptor): 52 nM
CC[C@@H]1CN2CCc3c([nH]c4ccc(-c5ccccc5)c(OC)c34)C2C[C@@H]1/C(=C\OC)C(=O)OC (stereo partly drawn) [VM1521, Methyl (E)-2-((2S,3S)-3-ethyl-9-(phenyl)-8-methoxy-1,2,3,4,6,7,12,12b-octahydroindolo[2,3-a]quinolizin-2-yl)-3-methoxyacrylate]	204 nM	> 1000 nM	364 nM	
CC[C@@H]1CN2CCC3(Nc4c(-c5ccoc5)ccc(OC)c4C3=O)C2C[C@@H]1/C(=C\OC)C(=O)OC (stereo partly drawn) [VM1514, Methyl (E)-2-((6'S,7'S)-6′-ethyl-7-(furan-3-yl)-4-methoxy-3-oxo-2′,3′,6′,7′,8′,8a′-hexahydro-5′H-spiro[indoline-2,1′-indolizin]-7′-yl)-3-methoxyacrylate]	119 nM	40 nM	41 nM	EC50 (MOR-1 [4]): > 1000 nM; EC50 (KOR-1 [5]; [8]): 40 nM; EC50 (DOR-1 [6]; [8]): 244 nM
CC[C@@H]1CN2CC[C@]3(Nc4cccc(OC(C)=O)c4C3=O)C2C[C@@H]1/C(=C\OC)C(=O)OC (stereo partly drawn) [VM1510, (E)-methyl 2-((1'S,6'S,7'S)-4-acetoxy-6′-ethyl-3-oxo-3′,5′,6′,7′,8′,8a′-hexahydro-2′H-spiro[indoline-2,1′-indolizine]-7′-yl)-3-methoxyacrylate]	31 nM	20 nM	2.5 nM	EC50 (MOR-1 [4]): 3.9 nM; Emax (MOR-1 [4]): 120%; ED50 (CD1 mice): 0.38 mg/kg
Oc1ccc2c3c1O[C@H]1c4[nH]c5ccccc5c4C[C@@]4(O)[C@@H](C2)N(CC2CC2)CC[C@]314 [NTI, Naltrindole, reference compound]				Ki (DOR-1 [2]): 0.46 nM; IC50 (DOR-1 [6]): 0.72 nM
C=C(COC)[C@H]1C[C@H]2c3[nH]c4cccc(OC)c4c3CCN2C[C@H]1CC [VM1535, (2S,3S,12bS)-3-ethyl-8-methoxy-2-(3-methoxyprop-1-en-2-yl)-1,2,3,4,6,7,12,12b-octahydroindolo[2,3-a]quinolizine]			> 1000 nM	
CC[C@@H]1CN2CCc3c(n(C)c4cccc(OC)c34)[C@@H]2C[C@@H]1/C(=C\OC)C(=O)OC [VM1541, Methyl (E)-2-((2S,3S,12bS)-3-ethyl-8-methoxy-12-methyl-1,2,3,4,6,7,12,12b-octahydroindolo[2,3-a]quinolizin-2-yl)-3-methoxyacrylate]	143 nM	> 1000 nM	163 nM	
CC[C@@H]1CN2CCc3c([nH]c4c(-c5ccoc5)ccc(OC)c34)C2C[C@@H]1/C(=C\OC)C(=O)OC (stereo partly drawn) [VM1520, Methyl (E)-2-((2S,3S)-3-ethyl-11-(furan-3-yl)-8-methoxy-1,2,3,4,6,7,12,12b-octahydroindolo[2,3-a]quinolizin-2-yl)-3-methoxyacrylate]	185 nM	617 nM	278 nM	
CC[C@@H]1CN2CC[C@@]3(N4CCCCC4)C(=Nc4cccc(OC)c43)[C@@H]2C[C@@H]1/C(=C\OC)C(=O)OC [VM1526, Methyl (E)-2-((2S,3S,7aS,12bS)-3-ethyl-8-methoxy-7a-(piperidin-1-yl)-1,2,3,4,6,7,7a,12b-octahydroindolo[2,3-a]quinolizin-2-yl)-3-methoxyacrylate]	72 nM	369 nM	247 nM	
CC[C@@H]1CN2CC[C@@]3(O)C(=Nc4c(-c5ccoc5)ccc(OC)c43)C2C[C@@H]1/C(=C\OC)C(=O)OC (stereo partly drawn) [VM1524, Methyl (E)-2-((2S,3S,7aS)-3-ethyl-11-(furan-3-yl)-7a-hydroxy-8-methoxy-1,2,3,4,6,7,7a,12b-octahydroindolo[2,3-a]quinolizin-2-yl)-3-methoxyacrylate]	338 nM	> 1000 nM	117 nM	
CC[C@@H]1CN2CCc3c(n(Cc4ccccc4)c4cccc(OC)c34)[C@@H]2C[C@@H]1/C(=C\OC)C(=O)OC [VM1533, Methyl (E)-2-((2S,3S,12bS)-12-benzyl-3-ethyl-8-methoxy-1,2,3,4,6,7,12,12b-octahydroindolo[2,3-a]quinolizin-2-yl)-3-methoxyacrylate]	395 nM	> 1000 nM	93 nM	
Oc1ccc2c3c1O[C@H]1c4[nH]c5c(c4C[C@@]4(O)[C@@H](C2)N(CC2CC2)CC[C@]314)C[C@@]1(O)[C@H]2Cc3ccc(O)c4c3[C@@]1(CCN2CC1CC1)[C@H]5O4 [norBNI, norbinaltorphimine, reference compound]	0.23 nM			IC50 (KOR-1 [5]; antagonism of 100 nM U50,488H, read-out: KOR-1 IC50): 2.9 nM
COC(=O)CC1CCN2CC[C@@]3(O)C(=Nc4cccc(OC)c43)C2C1 (stereo partly drawn) [VM1531, Methyl 2-((7aS)-7a-hydroxy-8-methoxy-1,2,3,4,6,7,7a,12b-octahydroindolo[2,3-a]quinolizin-2-yl)acetate]	> 1000 nM	> 1000 nM	> 1000 nM	
CC[C@@H]1CN2CC[C@]3(Nc4cccc(O)c4C3=O)C2C[C@@H]1/C(=C\OC)C(=O)OC (stereo partly drawn) [VM1507, (E)-methyl 2-((1'S,6'S,7'S)-6′-ethyl-4-hydroxy-3-oxo-3′,5′,6′,7′,8′,8a′-hexahydro-2′H-spiro[indoline-2,1′-indolizine]-7′-yl)-3-methoxyacrylate]	170 nM	6.1 nM	1.4 nM	EC50 (MOR-1 [4]): 2 nM; Emax (MOR-1 [4]): 124%; ED50 (CD1 mice): 0.18 mg/kg; IC50 (DOR-1 [6]): 293 nM
CC[C@@H]1CN2CCc3c([nH]c4ccc(Br)c(OC)c34)C2C[C@@H]1/C(=C\OC)C(=O)OC (stereo partly drawn) [VM1517, Methyl (E)-2-((2S,3S)-9-bromo-3-ethyl-8-methoxy-1,2,3,4,6,7,12,12b-octahydroindolo[2,3-a]quinolizin-2-yl)-3-methoxyacrylate]	195 nM	847 nM	104 nM	
CC[C@@H]1CN2CCc3c([nH]c4ccc(-c5ccoc5)c(OC)c34)C2C[C@@H]1/C(=C\OC)C(=O)OC (stereo partly drawn) [VM1519, Methyl (E)-2-((2S,3S)-3-ethyl-9-(furan-3-yl)-8-methoxy-1,2,3,4,6,7,12,12b-octahydroindolo[2,3-a]quinolizin-2-yl)-3-methoxyacrylate]	129 nM	653 nM	281 nM	
CC[C@@H]1CN2CC[C@@]3(C(=O)c4c(OC)cccc4N3C)C2C[C@@H]1/C(=C\OC)C(=O)OC (stereo partly drawn) [VM1503, (E)-methyl 2-((1'S,6'S,7'S)-6′-ethyl-4-methoxy-1-methyl-3-oxo-3′,5′,6′,7′,8′,8a′-hexahydro-2′H-spiro[indoline-2,1′-indolizine]-7′-yl)-3-methoxyacrylate]	> 1000 nM	> 1000 nM	375 nM	
CC[C@@H]1CN2CCC3(Nc4ccc(Cl)c(OC)c4C3=O)C2C[C@@H]1/C(=C\OC)C(=O)OC (stereo partly drawn) [VM1516, Methyl (E)-2-((6'S,7'S)-5-chloro-6′-ethyl-4-methoxy-3-oxo-2′,3′,6′,7′,8′,8a′-hexahydro-5′H-spiro[indoline-2,1′-indolizin]-7′-yl)-3-methoxyacrylate]	12 nM	2.1 nM	0.41 nM	
CC[C@@H]1CN2CC[C@@]3(C(=O)c4c(OC)cccc4N3Cc3ccccc3)C2C[C@@H]1/C(=C\OC)C(=O)OC (stereo partly drawn) [VM1505, (E)-methyl 2-((1'S,6'S,7'S)-1-benzyl-6′-ethyl-4-methoxy-3-oxo-3′,5′,6′,7′,8′,8a′-hexahydro-2′H-spiro[indoline-2,1′-indolizine]-7′-yl)-3-methoxyacrylate]	136 nM	258 nM	249 nM	
CC[C@@H]1CN2CCc3c([nH]c4cccc(OC)c34)[C@@H]2C[C@@H]1[C@@H](C)COC [VM1536, (2S,3S,12bS)-3-ethyl-8-methoxy-2-((R)-1-methoxypropan-2-yl)-1,2,3,4,6,7,12,12b-octahydroindolo[2,3-a]quinolizine]			> 1000 nM	
